Data as given in patent publication US20230338362A1 (priority 2020, published 2023).
Like-named read-outs stand apart in the source and are kept apart here.

Key:
common cold coronavirus = assay: In vitro activity against common cold coronaviruses, methods analogous to Example 1; format: cell-based
SARS-CoV = format: cell-based
Influenza B = assay: In vitro activity against Influenza B, methods analogous to Example 1; format: cell-based
SARS-CoV-2 = SARS-CoV-2 inhibition, cell viability assay (CellTiter-Glo) in VERO-E6 cells enriched for ACE-2; format: cell-based
MERS-CoV = format: cell-based
Influenza A = assay: In vitro activity against Influenza A, methods analogous to Example 1; format: cell-based
[1] = tested on: macrophages treated with SARS-CoV-2 Spike protein; format: cell-based, human; further: test concentration or dose not given here
[2] = tested on: macrophages treated with SARS-CoV-2 Spike protein; format: cell-based, human; remark: listed apart in the source; further: test concentration or dose not given here
[3] = Severe acute respiratory syndrome coronavirus 2, Vero C1008; Table II, antiviral compounds; VERO-E6 cells enriched for ACE-2 plus SARS-CoV-2; read-out: IC50
[4] = Severe acute respiratory syndrome coronavirus 2, Vero C1008; read-out: IC50 in an in vitro inhibition assay against SARS-CoV-2

SMILES: O=C(O)[C@H]1O[C@@H](Oc2cc3oc(-c4ccccc4)cc(=O)c3c(O)c2O)[C@H](O)[C@@H](O)[C@@H]1O [Baicalin, baicalin]
- activity against common cold coronavirus (common cold coronavirus): active
- activity against SARS-CoV (SARS-CoV): active
- activity against Influenza B (Influenza B): active
- IC50 (SARS-CoV-2; [3]): 5.96 µM
- IC50 (SARS-CoV-2; [4]): 5.96 µM
- activity against MERS-CoV (MERS-CoV): active
- activity against Influenza A (Influenza A): active

SMILES: CC(C)=CCc1cc(C(=O)/C=C/c2ccc(O)cc2)c(O)cc1O [Bavachalcone B]
- activity against common cold coronavirus (common cold coronavirus): active
- activity against SARS-CoV (SARS-CoV): active
- activity against Influenza B (Influenza B): active
- IC50 (SARS-CoV-2; [3]): 1.43 µM
- IC50 (SARS-CoV-2; [4]): 1.43 µM
- activity against MERS-CoV (MERS-CoV): active
- activity against Influenza A (Influenza A): active

SMILES: COc1ccc2cc1Oc1ccc(cc1)C[C@H]1c3c(cc4c(c3Oc3cc5c(cc3OC)CCN(C)[C@@H]5C2)OCO4)CCN1C [Cepharanthine, (14S,27S)-22,33-dimethoxy-13,28-dimethyl-2,5,7,20-tetraoxa-13,28-diazaoctacyclo[25.6.2.2^16,19.1^3,10.1^21,25.0^4,8.0^31,35.0^14,39]nonatri-aconta-1(33),3(39),4(8),9,16(38),17,19(37),21,23,25(36),31,34-dodecaene]
- anti-inflammatory cytokines [1]: inducing anti-inflammatory cytokines such as IL-10
- expression of cytokine modulators / anti-inflammatory cytokines [1]: activating expression of the anti-inflammatory cytokine IL-10
- expression of pro-inflammatory cytokines [1]: inhibited expression of pro-inflammatory cytokines VEGF, IL-6, IL-8, GRO, MIP-1α, MIP-1β and MMP-9
- expression of the anti-inflammatory cytokine IL-10 [1]: increasing expression of the anti-inflammatory cytokine IL-10
- multiple pro-inflammatory cytokines [1]: suppressed multiple pro-inflammatory cytokines such as IL-1β, TNF-α, IL-6 IL-8, IL-12, MCP-1 and MIP-1α
- pro-inflammatory cytokines [1]: selectively inhibited pro-inflammatory cytokine, such as VEGF, IL-6, IL-8, GRO, MIP-1α, MIP-1β and MMP-9
- activity against common cold coronavirus (common cold coronavirus): active
- activity against SARS-CoV (SARS-CoV): active
- apoptosis by activation of caspase 3 [2]: selectively induces apoptosis
- apoptosis by caspase 3 activation [2]: induced apoptosis
- activity against Influenza B (Influenza B): active
- IC50 (SARS-CoV-2; [3]): 0.51 µM
- IC50 (SARS-CoV-2; [4]): 0.51 µM
- activity against MERS-CoV (MERS-CoV): active
- activity against Influenza A (Influenza A): active

SMILES: CN(C)CCCSc1ccccc1NC(=O)/C=C/c1ccccc1 [Cinanserin, cinanserin]
- activity against common cold coronavirus (common cold coronavirus): active
- activity against SARS-CoV (SARS-CoV): active
- activity against Influenza B (Influenza B): active
- IC50 (SARS-CoV-2; [3]): 13.7 µM
- IC50 (SARS-CoV-2; [4]): 13.7 µM
- activity against MERS-CoV (MERS-CoV): active
- activity against Influenza A (Influenza A): active

SMILES: O=C(/C=C/c1ccc(O)c(O)c1)O[C@H](Cc1ccc(O)c(O)c1)C(=O)O [Rosmarinic acid]
- activity against common cold coronavirus (common cold coronavirus): active
- activity against SARS-CoV (SARS-CoV): active
- activity against Influenza B (Influenza B): active
- IC50 (SARS-CoV-2; Severe acute respiratory syndrome coronavirus 2, Vero C1008, read-out: IC50 in an in vitro inhibition assay against SARS-CoV-2): 0.89 µM
- IC50 (SARS-CoV-2; [3]): 0.89 µM
- activity against MERS-CoV (MERS-CoV): active
- activity against Influenza A (Influenza A): active

SMILES: COc1ccc2cc1Oc1ccc(cc1)C[C@H]1c3cc(c(OC)cc3CCN1C)Oc1c(OC)c(OC)cc3c1[C@H](C2)N(C)CC3 [Tetrandrine, (1S,14S)-9,20,21,25-tetramethoxy-15,30-dimethyl-7,23-dioxa-15,30-diazaheptacyclo[22.6.2.2^3,6.1^8,12.1^14,18.0^27,31.0^22,33]hexatriaconta-3(36),4,6(35),8,10,12(34),18,20,22(33),24,26,31-dodecaene]
- anti-inflammatory cytokines [1]: inducing anti-inflammatory cytokines, such as IL-10
- expression of cytokine modulators / anti-inflammatory cytokines [1]: activating expression of the anti-inflammatory cytokine IL-10
- expression of pro-inflammatory cytokines [1]: inhibited expression of pro-inflammatory cytokines VEGF, IL-6, IL-8, MIP-1α and MIP-1β
- pro-inflammatory cytokines [1]: selectively inhibited pro-inflammatory cytokine, such as VEGF, IL-6, IL-8, MIP-1α and MIP-1β
- activity against common cold coronavirus (common cold coronavirus): active
- activity against SARS-CoV (SARS-CoV): active
- apoptosis by activation of caspase 3 [2]: selectively induces apoptosis
- apoptosis by caspase 3 activation [2]: induced apoptosis
- activity against Influenza B (Influenza B): active
- activity against MERS-CoV (MERS-CoV): active
- activity against Influenza A (Influenza A): active

SMILES: O=c1cc(-c2ccccc2)oc2cc(O)c(O)c(O)c12 [baicalein, 5,6,7-trihydroxy-2-phenylchromen-4-one]
- anti-inflammatory cytokines [1]: inducing anti-inflammatory cytokines such as IL-10
- expression of cytokine modulators / anti-inflammatory cytokines [1]: activated expression of cytokine modulators IL-10 and IFN-γ
- expression of pro-inflammatory cytokines [1]: inhibited expression of pro-inflammatory cytokines IL-1α, IL-8, GRO, MCP-1, MIP-1α, MIP-1β, MMP-9 and TNF-α
- pro-inflammatory cytokines [1]: selectively inhibited pro-inflammatory cytokine, such as IL-1α, IL-8, GRO, MCP-1, MIP-1α, MIP-1β, MMP-9 and TNF-α
- apoptosis by activation of caspase 3 [2]: selectively induces apoptosis
- apoptosis by caspase 3 activation [2]: induced apoptosis

SMILES: O=C(/C=C/c1ccccc1)Nc1ccccc1 [cinnamanilide, (E)-N,3-diphenylprop-2-enamide]
- anti-inflammatory cytokines [1]: inducing anti-inflammatory cytokines such as IL-10
- expression of cytokine modulators / anti-inflammatory cytokines [1]: activated expression of cytokine modulator IL-10
- expression of pro-inflammatory cytokines [1]: inhibited expression of pro-inflammatory cytokines IL-1α, VEGF, IL-6, IL-8, IL-13, GM-CSF, MIP-1α, MIP-1β, MMP-9 and RANTES
- pro-inflammatory cytokines [1]: selectively inhibited pro-inflammatory cytokine, such as IL-1α, VEGF, IL-6, IL-8, IL-13, GM-CSF, MIP-1α, MIP-1β, MMP-9 and RANTES

SMILES: COc1ccc(-c2coc3cc(O)ccc3c2=O)cc1 [formononetin, 7-hydroxy-3-(4-methoxyphenyl)chromen-4-one]
- anti-inflammatory cytokines [1]: inducing anti-inflammatory cytokines, such as IL-10 and IFN-γ
- expression of cytokine modulators / anti-inflammatory cytokines [1]: activated expression of cytokine modulators IL-10 and IFN-γ
- expression of pro-inflammatory cytokines [1]: inhibited expression of pro-inflammatory cytokines VEGF, IL-6, IL-8, GRO, MCP-1, MIP-1α, MIP-1β, MMP-9 and RANTES
- pro-inflammatory cytokines [1]: selectively inhibited pro-inflammatory cytokine, such as VEGF, IL-6, IL-8, GRO, MCP-1, MIP-1α, MIP-1β, MMP-9 and RANTES
- apoptosis by activation of caspase 3 [2]: selectively induces apoptosis
- apoptosis by caspase 3 activation [2]: induced apoptosis

SMILES: CC(C)=CCc1cc([C@@H]2CCc3ccc(O)cc3O2)c(CC=C(C)C)c(O)c1O [kazinol A, 4-[(2S)-7-hydroxy-3,4-dihydro-2H-chromen-2-yl]-3,6-bis(3-methylbut-2-enyl)benzene-1,2-diol]
- anti-inflammatory cytokines [1]: inducing anti-inflammatory cytokines such as IL-10
- expression of cytokine modulators / anti-inflammatory cytokines [1]: activated expression of cytokine modulator IL-10
- expression of pro-inflammatory cytokines [1]: inhibited expression of pro-inflammatory cytokines IL-1α, IL-4, IL-8, MIP-1β and MMP-9
- pro-inflammatory cytokines [1]: selectively inhibited pro-inflammatory cytokine, such as IL-1α, IL-4, IL-8, MIP-1β and MMP-9
- apoptosis by activation of caspase 3 [2]: selectively induces apoptosis
- apoptosis by caspase 3 activation [2]: induced apoptosis
